Measured values taken from patent US8153784B2, “Imaging of enzyme activity” (The General Hospital Corporation, priority 2004, dated 2012).
One block for each compound: values may come before it.

Experiments:
[1] = target: T1, human MPO embedded in Matrigel (Homo sapiens, UniProt P05164); assay: MPO/Matrigel implant mouse model, T1-weighted MR imaging; format: in vivo; details: mice; right MPO/Matrigel vs left control; 1.5 T
T1 construct: purchased BioDesign, Inc
T1 sequence (P05164 49-745): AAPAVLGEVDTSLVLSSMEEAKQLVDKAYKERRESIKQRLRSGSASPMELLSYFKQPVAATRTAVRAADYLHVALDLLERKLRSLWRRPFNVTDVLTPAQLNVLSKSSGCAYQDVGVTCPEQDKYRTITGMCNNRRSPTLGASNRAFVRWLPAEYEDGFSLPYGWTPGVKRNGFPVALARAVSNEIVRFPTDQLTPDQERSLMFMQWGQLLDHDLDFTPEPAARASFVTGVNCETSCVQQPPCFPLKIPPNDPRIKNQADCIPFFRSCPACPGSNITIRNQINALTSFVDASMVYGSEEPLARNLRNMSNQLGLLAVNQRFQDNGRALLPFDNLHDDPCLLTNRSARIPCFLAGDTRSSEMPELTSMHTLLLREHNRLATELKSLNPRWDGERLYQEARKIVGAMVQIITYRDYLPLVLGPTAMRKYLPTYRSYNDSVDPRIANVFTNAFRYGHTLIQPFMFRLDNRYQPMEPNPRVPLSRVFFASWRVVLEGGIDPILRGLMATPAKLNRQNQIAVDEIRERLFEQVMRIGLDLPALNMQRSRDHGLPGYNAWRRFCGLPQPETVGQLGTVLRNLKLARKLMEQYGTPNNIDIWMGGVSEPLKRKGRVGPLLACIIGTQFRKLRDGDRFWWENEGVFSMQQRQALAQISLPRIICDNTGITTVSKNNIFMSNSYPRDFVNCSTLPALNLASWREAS
Experimental: To evaluate the monomeric substrates in vivo, we devised a mouse model that harbored 400 μL of Matrigel basement membrane matrix gel mixed 1:1 by volume with a solution containing 15 U of human MPO and glucose oxidase (as a source of hydrogen peroxide) that was injected into the right flank of the mouse. The left flank was injected with the enzyme-free Matrigel mixture. We subsequently performed T1-weighted MR imaging after the intravenous injection of Gd-DTPA-diSer substrate at the dose of […].
The MR imaging experiments were performed on a 1.5 T GE Excite scanner and a 4.7 T Bruker Pharmascan scanner. For all MR imaging experiments, precontrast T2-(TR=2000, TE=100, ETL=8, NEX=4, fast spin echo sequence) and T1-weighted images (TR=500, TE=11, NEX=4, spin echo sequence) with fat saturation were initially performed to locate the gels or area of inflammation. The substrates (0.3 mmol/kg) were subsequently injected via the tail vein of the mouse. The mouse was immediately imaged after the injection of the contrast agent using multiple T1-weighted sequences with fat saturation for at least 3 hours.
(§1) Ten-week old C57BL6 male mice were obtained from Jackson Laboratories. A total of 22 mice were used for the study. • 1. MPO/Matrigel imaging experiments: Matrigel™ (Beckton-Dickinson), a […] basement membrane matrix gel was used to immobilize human MPO and glucose oxidase (to supply H2O2 required for detecting MPO oxidative activity, Calbiochem). This was chosen to reflect deposits of human MPO in inflamed tissue in a mouse model. 400 μL of a mixture of Matrigel™ and MEM (Cambrex) was injected slowly into the thighs of each mouse one hour prior to imaging. The right thigh mixture also contained 15 U of MPO and 4 U of glucose oxidase (Calbiochem), while the left thigh mixture contained no enzyme and thus serves as an internal control. A total of 15 mice were used (3 mice each for 5-HT-DOTA(Gd), bis-5-HT-DTPA(Gd), bis-5-HT-DTPA-^111In, bis-tyramide-DTPA(Gd), and DTPA(Gd)). • 2. LPS/Matrigel experiments (n=3): This model was developed to induce endogeneous mouse MPO secretion and activation. 200 μL total volume Matrigel containing 10% heparin was injected slowly into the thighs of the mice 4 days prior to imaging. The right-sided mixture also contained E. coli lipopolysaccharide (LPS) at 10 μg/mL. One mouse was sacrificed for immunohistochemistry. • 3. Myositis experiments (n=4): LPS at 100 μg/mL in PBS was injected into each mouse intramuscularly in the right flank to produce myositis. The mice are imaged 24 hours after injection.
For normalized signal intensity measured on T1-weighted images, mean±standard deviation (SD) values were calculated in regions of interest (ROI). Contrast-to-noise (CNR) ratios were computed for each ROI according to the formula

MPO = target: T2, MPO (Homo sapiens, UniProt P05164); assay: SPECT-CT imaging of MPO/Matrigel implants with 111In tracer; format: in vivo, mouse; set-up: purchased BioDesign, Inc
T2 sequence (P05164 49-745): T1 sequence (P05164 49-745)
Experimental: as §1
(§2) 80-100 μCi of ^111In-bis-5-HT-DTPA in 200 μL of saline was injected intravenously into three mice prepared in the same manner as in the MPO/Matrigel MR imaging experiments. The animals were imaged 3 hours after injection on a high resolution X-SPECT/CT system (Gamma Medica). Six hours after injection, the animals were sacrificed and biodistribution was determined in major organs. The % dose accumulated per gram of major organs was determined by using the 1480 Wizard gamma counter (Perkin-Elmer).

[2] = Biodistribution of 111In tracer; format: in vivo, mouse; details: mice, 6 h post injection
Experimental: as §2

human neutrophil MPO = target: T3, human neutrophil MPO (Homo sapiens, UniProt P05164); assay: MPO-mediated polymerization of DOTA(Gd) substrates: T1/T2 relaxivity change; format: biochemical; details: for relaxivity ratio: ˜2000 U of MPO activity
T3 construct: purchased BioDesign Inc
Experimental: (§3) Reactions with HRP and MPO were carried out at room temperature in the presence of 0.5-1 mM substrate dissolved in 0.5 ml PBS containing H2O2 (2 mM). Reaction was initiated by adding an aliquot containing the enzyme (either HRP or MPO) and vortexing. After at least a 30 min incubation period T1 was measured using inversion-recovery pulse sequence Bruker Minispec (Buker Analytics, North Bellirica Mass.) at 0.47 T (20 MHz). Size-exclusion HPLC of reaction products was performed on TSK G3000SWXL macroporous column (Supelco) eluted with 0.1 M triethylammonium acetate, pH 7.0 at 1 ml/min.
(§4) Standard 96-well plates were prepared and imaged on a 1.5 T whole body clinical General Electric Signa MRI scanner utilizing a standard 3 inch surface coil. Inversion recovery sequences were used to measure T1 relaxation and spin echo sequences were utilized to measure T2 relaxation. T2 weighted images were obtained with TR=5000 ms and TE=100 ms with a fast spin echo sequence. T1 weighted images were obtained with spin echo sequences with the following parameters: TR=100, 200, 350, or 500, TE=11. For the Matrigel™ experiments, a relatively T2 weighted image was obtained at TR=300 ms and TE=200 ms. Single-exponential models were used to obtain T1 and T2. The relaxivities were computed by normalizing relaxation rates to the concentration of gadolinium in each sample, obtained by inductive coupled plasma (ICP) analysis performed by Galbraith Laboratories.
To determine the effect of myeloperoxidase on the substrates, we performed T1 and T2 relaxivity measurements in aqueous solutions, with and without MPO and hydrogen peroxide, at 0.47 T and 1.5 T (the results are summarized in FIGS. 3A and 3B for tyramide-DOTA(Gd) and FIGS. 4A and 4B for 5-HT-DOTA(Gd)). For reference, the two substrates were also reacted with HRP (solid symbols in FIGS. 3A and 3B and FIGS. 4A and 4B).

MPO-I = target: T4, MPO-I (Homo sapiens, UniProt P05164); details: cited from earlier work
T4 sequence (P05164 49-745): T1 sequence (P05164 49-745)

[3] = target: T5, horseradish peroxidase (HRP) (Armoracia rusticana, UniProt P00433); assay: Pseudo-first-order rate constants of HRP-mediated conversion (relaxation times over time, 0.47 T); format: biochemical, horseradish; set-up: purchased Sigma-Aldrich type XII (catalogue number not given); details: from T1 measurements, mean±SD
T5 sequence (P00433 31-338): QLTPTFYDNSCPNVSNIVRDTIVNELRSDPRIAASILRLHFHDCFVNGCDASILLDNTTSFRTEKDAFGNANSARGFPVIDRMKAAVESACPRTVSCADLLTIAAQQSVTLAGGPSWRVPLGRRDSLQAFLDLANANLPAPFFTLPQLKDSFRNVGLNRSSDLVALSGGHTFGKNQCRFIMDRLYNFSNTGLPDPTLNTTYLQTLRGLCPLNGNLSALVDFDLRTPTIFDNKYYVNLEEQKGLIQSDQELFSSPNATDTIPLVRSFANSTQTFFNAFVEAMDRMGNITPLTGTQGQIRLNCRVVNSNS
Experimental: Kinetics of the samples were observed by measuring T1 and T2 at 0.47 T and 40° C. of the samples over at least a 24 hour period. At different time points, 1 M of sodium azide (final concentration=0.17 M) was added to stop the enzyme mediated reaction. The resultant progress curve was fitted with an empirical mathematical model and analyzed according to the Guggenheim method to obtain the pseudo-first-order rate constants (Guggenheim E A. Philos. Mag. 1926; 2:538).
An important property of a suitable substrate for an enzyme is the kinetics of enzymatic reaction. To determine the utility of the paramagnetic complexes as suitable substrates for human myeloperoxidase (MPO), we measured the pseudo-first-order rate constant of these substrates in MPO, and compared to the same substrates' reactions in Horse Radish Peroxidase (HRP) by monitoring the changes in relaxation time over time. […] The results shown were obtained using T1 measurements. T2 measurements yielded nearly identical results. The results are presented as mean±SD. N/A=not applicable.

[4] = target: T5, horseradish peroxidase (HRP); assay: HRP-mediated polymerization of DOTA(Gd) substrates: relaxivity change; format: biochemical; set-up: purchased Sigma
Experimental: as §3
as §4, with “The relaxivities were computed by normalizing relaxation rates to the concentration of gadolinium in each sample, obtained by inductive coupled plasma (ICP) analysis performed by Galbraith Laboratories.” left out

Structure (SMILES): O=C(O)CN(CCN(CC(=O)O)CC(=O)NCCc1c[nH]c2ccc(O)cc12)CCN(CC(=O)O)CC(=O)NCCc1c[nH]c2ccc(O)cc12 [Compound 2]
enhancement of MPO implant compared with control implant [1]: significantly increased enhancement

Structure (SMILES): O=C([O-])CN(CCN(CC(=O)[O-])CC(=O)NCCc1c[nH]c2ccc(O)cc12)CCN(CC(=O)[O-])CC(=O)NCCc1c[nH]c2ccc(O)cc12.[111In+3] [^111In-bis-5-HT-DTPA]
increase in the radioactivity of the right leg (with MPO) vs. the left leg (without MPO) (MPO; mice n=3, SPECT-CT 3 hours after injection): 2.3±0.3 fold
increase in count in the dissected gel with embedded MPO (MPO; mice, 6 h post injection): greater than 4 fold
uptake on the side containing MPO (MPO; mouse, SPECT/CT 3 hours after the injection): significant increased uptake
injected dose excreted [2]: 90%
organs holding most of the remaining dose [2]: spleen, bowel, kidney, and liver
organs holding most of the remaining dose ([2]; listed as 111In-chelated monomeric substrate): spleen, kidneys, bowel, and liver

reaction with MPO (human neutrophil MPO): does not react with MPO
Structure (SMILES): CC(C(=O)NCC(=O)NCCc1ccc(O)c(O)c1)N1CCN(CC(=O)[O-])CCN(CC(=O)[O-])CCN(CC(=O)[O-])CC1.[Gd+3] (stereo not shown) [hydroxytyramide-DOTA(Gd), Glycylmethyl DOTA(Gd) Hydroxytyramide]
relaxivity increase from reaction with MPO (human neutrophil MPO): did not result in a substantially significant relaxivity increase

Structure (SMILES): NCCc1c[nH]c2ccc(O)cc12 [serotonin, 3-(2-aminoethyl)-5-hydroxyindole]
MPO-mediated oxidation in excess chloride (MPO-I; about 5,000 times higher excess of chloride): could not be completely stopped
kinetic constant of the MPO-I reaction relative to the reaction with chloride (MPO-I; neutral pH): about 10 times

Pseudo first-order rate constant [3]: 0.0095 s⁻¹
relaxivity ratio (human neutrophil MPO; 0.47 T): 1.7 times
relaxivity ratio (human neutrophil MPO; 1.5 T): 1.4 times
T1 shortening relative to the HRP result (human neutrophil MPO; 2000 U MPO): 70-75%
MPO needed to reach >90% of the T1 shortening seen with HRP (human neutrophil MPO; assuming a linear response to the amount of MPO): > 3000 U
increase in relaxivity of polymer product (human neutrophil MPO; equivalent amount of MPO, clinical imaging strength): 1.4 times
relaxivity ratio ([4]; 0.47 T): about 2.3 times
relaxivity ratio ([4]; 1.5 T): about 2.1 times
Structure (SMILES): CC(C(=O)NCC(=O)NCCc1ccc(O)cc1)N1CCN(CC(=O)[O-])CCN(CC(=O)[O-])CCN(CC(=O)[O-])CC1.[Gd+3] (stereo not shown) [tyramide-DOTA(Gd), Glycylmethyl DOTA(Gd) Tyramide]
